target: T1, CRF1 receptors (Homo sapiens, UniProt P34998); test: CRF1 receptor radioligand binding assay ([125I]-oCRF competition, IMR-32 cell membranes); settings: IMR-32 cell membranes, [125I]-oCRF 100 pM; read-out: Ki (CRF-1R)
T1 construct: endogenous in cells; host or cells: IMR-32 cells, transformed with 2.5 µM 5'-bromo-2'-deoxyuridine for 10 days; membrane preparation
T1 sequence (P34998 24-415): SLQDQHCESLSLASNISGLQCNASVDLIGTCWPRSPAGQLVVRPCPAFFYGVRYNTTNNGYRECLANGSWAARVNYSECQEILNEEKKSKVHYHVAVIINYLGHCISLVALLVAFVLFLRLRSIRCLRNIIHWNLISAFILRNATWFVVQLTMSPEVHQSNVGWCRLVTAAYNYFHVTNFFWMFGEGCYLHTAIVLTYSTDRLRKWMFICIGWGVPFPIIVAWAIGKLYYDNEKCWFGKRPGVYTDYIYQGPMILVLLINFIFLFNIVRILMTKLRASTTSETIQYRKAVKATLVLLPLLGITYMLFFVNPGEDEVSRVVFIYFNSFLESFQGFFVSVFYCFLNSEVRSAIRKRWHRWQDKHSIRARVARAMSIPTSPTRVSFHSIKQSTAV
In short: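 Buffer: Tris pH 7.2 with MgCl2, BSA, Triton X-100, aprotinin, leupeptin; reaction stopped with ice-cold wash and filtered. Nonspecific binding set with 10 μM oCRF.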

Row | SMILES | Ki [µM]
1 | CCCN(Cc1c(C(F)(F)F)nc2n(-c3c(C)cc(C)cc3C)c(Cl)cn12)CC(F)(F)F [Example 322, [6-Chloro-2-trifluoromethyl-7-(2,4,6-trimethyl-phenyl)-7H-imidazo[1,2-a]imidazol-3-ylmethyl]-propyl-(2,2,2-trifluoro-ethyl)-amine] | < 0.01
2 | CCCN(Cc1c(C(F)(F)F)nc2n(-c3c(C)cc(C)cc3C)c(Cl)cn12)CC(F)(F)C(F)(F)F [Example 323, [6-Chloro-2-trifluoromethyl-7-(2,4,6-trimethyl-phenyl)-7H-imidazo[1,2-a]imidazol-3-ylmethyl]-(2,2,3,3,3-pentafluoro-propyl)-propyl-amine] | < 1
3 | Cc1cc(C)c(-n2c(Cl)cn3c(CN(CCc4ccccc4)CC(F)(F)F)c(C(F)(F)F)nc23)c(C)c1 [Example 324, [6-Chloro-2-trifluoromethyl-7-(2,4,6-trimethyl-phenyl)-7H-imidazo[1,2-a]imidazol-3-ylmethyl]-phenethyl-(2,2,2-trifluoro-ethyl)-amine] | < 1
4 | Cc1cc(C)c(-n2c(Cl)cn3c(CN(CCC(F)(F)F)Cc4ccccc4)c(C(F)(F)F)nc23)c(C)c1 [Example 327, Benzyl-[6-chloro-2-trifluoromethyl-7-(2,4,6-trimethyl-phenyl)-7H-imidazo[1,2-a]imidazol-3-ylmethyl]-(3,3,3-trifluoro-propyl)-amine] | < 0.1
5 | Cc1cc(C)c(-n2c(Cl)cn3c(CN(CCC4CC4)CCC(F)(F)F)c(C(F)(F)F)nc23)c(C)c1 [Example 330, [6-Chloro-2-trifluoromethyl-7-(2,4,6-trimethyl-phenyl)-7H-imidazo[1,2-a]imidazol-3-ylmethyl]-(2-cyclopropyl-ethyl)-(3,3,3-trifluoro-propyl)-amine] | < 0.01
6 | Cc1cc(C)c(-n2c(Cl)cn3c(CN(CCC4CC4)CC(F)(F)F)c(C(F)(F)F)nc23)c(C)c1 [Example 331, [6-Chloro-2-trifluoromethyl-7-(2,4,6-trimethyl-phenyl)-7H-imidazo[1,2-a]imidazol-3-ylmethyl]-(2-cyclopropyl-ethyl)-(2,2,2-trifluoro-ethyl)-amine] | < 0.01
7 | Cc1cc(C)c(-n2c(Cl)cn3c(CN(Cc4ccc(F)cc4)CC(F)(F)F)c(C(F)(F)F)nc23)c(C)c1 [Example 332] | < 1
8 | Cc1cc(C)c(-n2c(Cl)cn3c(CN(CCC(F)(F)F)Cc4ccc(F)cc4)c(C(F)(F)F)nc23)c(C)c1 [Example 333] | < 0.1
9 | Cc1cc(C)c(-n2c(Cl)cn3c(CN(CCC(F)(F)F)Cc4ccc(Cl)cc4)c(C(F)(F)F)nc23)c(C)c1 [Example 336, (4-Chloro-benzyl)-[6-chloro-2-trifluoromethyl-7-(2,4,6-trimethyl-phenyl)-7H-imidazo[1,2-a]imidazol-3-ylmethyl]-(3,3,3-trifluoro-propyl)-amine] | < 0.01

Further lines, results first:

Row | Ki [µM] | SMILES
10 | < 0.01 | C=CCN(CCC)Cc1c(C(F)(F)F)nc2n(-c3c(C)cc(C)cc3C)c(Cl)cn12 [Example 339, Allyl-[6-chloro-2-trifluoromethyl-7-(2,4,6-trimethyl-phenyl)-7H-imidazo[1,2-a]imidazol-3-ylmethyl]-propyl-amine]
11 | < 1 | CCCN(Cc1cccc(F)c1)Cc1c(C(F)(F)F)nc2n(-c3c(C)cc(C)cc3C)c(Cl)cn12 [Example 340, [6-Chloro-2-trifluoromethyl-7-(2,4,6-trimethyl-phenyl)-7H-imidazo[1,2-a]imidazol-3-ylmethyl]-(3-fluoro-benzyl)-propyl-amine]
12 | < 0.01 | CCN(Cc1c(C(F)(F)F)nc2n(-c3c(C)cc(C)cc3C)c(Cl)cn12)CC1CCC1 [Example 341, [6-Chloro-2-trifluoromethyl-7-(2,4,6-trimethyl-phenyl)-7H-imidazo[1,2-a]imidazol-3-ylmethyl]-cyclobutylmethyl-ethyl-amine]
13 | < 0.1 | CCCN(CCOC)Cc1c(C(F)(F)F)nc2n(-c3c(C)cc(C)cc3C)c(Cl)cn12 [Example 342, [6-Chloro-2-trifluoromethyl-7-(2,4,6-trimethyl-phenyl)-7H-imidazo[1,2-a]imidazol-3-ylmethyl]-(2-methoxy-ethyl)-propyl-amine]

From patent US7125990B2, “Imidazolyl derivatives as corticotropin releasing factor inhibitors” (Bristol-Myers Squibb COmpany, priority 2001, dated 2006)
